Results published in PMC10046369, “Low-Affinity/High-Selectivity Dopamine Transport Inhibition Sufficient to Rescue Cognitive Functions in the Aging Rat” (Biomolecules, 2023).

Experiments:
Assay in all cases: cell-based
Parameters in all cases: Eurofins Cerep functional GPCR screen, antagonist mode, inhibition of control agonist response
Settings in all cases: read-out: % Inhibition of Control Agonist Response, Mean
[1] = biological target: T1, A3 (Homo sapiens, UniProt P0DMS8)
T1 construct: gene ADORA3

[2] = biological target: T2, APJ (apelin) (Homo sapiens, UniProt P35414)
T2 construct: gene APLNR
T2 sequence (P35414 whole entry): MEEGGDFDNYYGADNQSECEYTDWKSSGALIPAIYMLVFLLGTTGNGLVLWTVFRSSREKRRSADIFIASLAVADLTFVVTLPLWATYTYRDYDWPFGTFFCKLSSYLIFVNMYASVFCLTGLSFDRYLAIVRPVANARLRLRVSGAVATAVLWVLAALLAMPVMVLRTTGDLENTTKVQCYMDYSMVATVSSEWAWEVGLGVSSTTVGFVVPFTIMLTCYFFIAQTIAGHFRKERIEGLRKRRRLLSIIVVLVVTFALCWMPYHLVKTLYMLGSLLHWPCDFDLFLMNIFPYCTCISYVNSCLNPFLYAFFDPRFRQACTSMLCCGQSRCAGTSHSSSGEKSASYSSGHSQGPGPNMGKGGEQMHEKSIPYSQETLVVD

[3] = biological target: T3, BB2 (Homo sapiens, UniProt P30550)
T3 construct: gene GRPR

[4] = biological target: T4, BB3 (Homo sapiens, UniProt P32247)
T4 construct: gene BRS3
T4 sequence (P32247 whole entry): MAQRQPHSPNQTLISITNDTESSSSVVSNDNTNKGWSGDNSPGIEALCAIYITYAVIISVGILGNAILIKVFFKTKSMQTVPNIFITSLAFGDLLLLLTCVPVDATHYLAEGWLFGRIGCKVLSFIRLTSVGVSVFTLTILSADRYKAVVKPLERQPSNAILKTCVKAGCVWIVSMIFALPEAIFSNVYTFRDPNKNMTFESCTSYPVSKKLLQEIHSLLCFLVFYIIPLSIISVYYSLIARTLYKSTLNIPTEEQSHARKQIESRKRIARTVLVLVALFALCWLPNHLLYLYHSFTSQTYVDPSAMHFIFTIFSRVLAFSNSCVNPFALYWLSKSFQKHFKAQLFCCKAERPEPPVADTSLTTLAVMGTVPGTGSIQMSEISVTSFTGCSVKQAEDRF

[5] = biological target: T5, C3aR (Homo sapiens, UniProt Q16581)
T5 construct: gene C3AR1

[6] = biological target: T6, CB1 (Homo sapiens, UniProt P21554)
T6 construct: gene CNR1

[7] = biological target: T7, CCK1 (CCKA) (Homo sapiens, UniProt P32238)
T7 construct: gene CCKAR

[8] = biological target: CCR10 (Homo sapiens, UniProt P46092)
Sequence of CCR10 (P46092 whole entry): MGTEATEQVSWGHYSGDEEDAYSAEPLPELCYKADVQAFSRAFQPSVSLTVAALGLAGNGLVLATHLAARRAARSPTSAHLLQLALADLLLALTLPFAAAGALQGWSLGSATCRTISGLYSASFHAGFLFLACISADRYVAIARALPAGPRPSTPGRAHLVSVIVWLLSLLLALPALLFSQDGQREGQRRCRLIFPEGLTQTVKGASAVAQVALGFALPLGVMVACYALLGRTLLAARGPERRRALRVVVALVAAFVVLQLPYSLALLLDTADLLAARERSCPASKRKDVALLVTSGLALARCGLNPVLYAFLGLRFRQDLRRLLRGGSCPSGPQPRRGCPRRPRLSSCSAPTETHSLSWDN

[9] = biological target: CCR3 (Homo sapiens, UniProt P51677)
[10] = biological target: CCR4 (Homo sapiens, UniProt P51679)
[11] = biological target: T8, CGRP (Homo sapiens, UniProt Q16602)
T8 construct: gene CALCRL
T8 sequence (Q16602 whole entry): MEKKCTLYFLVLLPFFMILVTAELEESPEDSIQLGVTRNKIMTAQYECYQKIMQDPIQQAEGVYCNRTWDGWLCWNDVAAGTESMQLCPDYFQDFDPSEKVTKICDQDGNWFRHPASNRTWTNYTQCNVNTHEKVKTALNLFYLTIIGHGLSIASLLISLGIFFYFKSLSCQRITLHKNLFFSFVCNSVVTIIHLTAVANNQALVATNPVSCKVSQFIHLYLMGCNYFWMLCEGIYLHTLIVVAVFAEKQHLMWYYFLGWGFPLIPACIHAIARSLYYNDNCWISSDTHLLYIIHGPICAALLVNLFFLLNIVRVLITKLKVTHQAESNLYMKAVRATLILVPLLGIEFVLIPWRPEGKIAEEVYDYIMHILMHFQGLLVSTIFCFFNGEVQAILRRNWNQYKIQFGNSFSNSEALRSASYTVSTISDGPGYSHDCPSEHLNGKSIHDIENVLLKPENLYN
T8 sequence (O60894 whole entry partner): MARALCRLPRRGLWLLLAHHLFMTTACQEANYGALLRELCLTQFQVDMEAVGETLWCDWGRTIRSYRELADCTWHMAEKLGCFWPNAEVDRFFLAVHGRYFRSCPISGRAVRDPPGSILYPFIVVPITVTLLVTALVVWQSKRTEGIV

[12] = biological target: T9, CRF1 (Homo sapiens, UniProt P34998)
T9 construct: gene CRHR1
T9 sequence (P34998 whole entry): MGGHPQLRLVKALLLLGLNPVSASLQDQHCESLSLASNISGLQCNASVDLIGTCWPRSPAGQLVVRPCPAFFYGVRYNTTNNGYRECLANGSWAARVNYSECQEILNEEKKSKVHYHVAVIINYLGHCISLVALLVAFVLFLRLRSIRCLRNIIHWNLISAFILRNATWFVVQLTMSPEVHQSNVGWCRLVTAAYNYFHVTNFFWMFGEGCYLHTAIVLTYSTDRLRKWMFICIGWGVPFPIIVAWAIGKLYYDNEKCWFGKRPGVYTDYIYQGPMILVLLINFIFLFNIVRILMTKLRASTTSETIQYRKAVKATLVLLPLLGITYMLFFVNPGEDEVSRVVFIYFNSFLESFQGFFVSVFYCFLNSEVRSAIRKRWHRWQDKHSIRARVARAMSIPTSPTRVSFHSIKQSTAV

[13] = biological target: CXCR4 (Homo sapiens, UniProt P61073)
Sequence of CXCR4 (P61073 whole entry): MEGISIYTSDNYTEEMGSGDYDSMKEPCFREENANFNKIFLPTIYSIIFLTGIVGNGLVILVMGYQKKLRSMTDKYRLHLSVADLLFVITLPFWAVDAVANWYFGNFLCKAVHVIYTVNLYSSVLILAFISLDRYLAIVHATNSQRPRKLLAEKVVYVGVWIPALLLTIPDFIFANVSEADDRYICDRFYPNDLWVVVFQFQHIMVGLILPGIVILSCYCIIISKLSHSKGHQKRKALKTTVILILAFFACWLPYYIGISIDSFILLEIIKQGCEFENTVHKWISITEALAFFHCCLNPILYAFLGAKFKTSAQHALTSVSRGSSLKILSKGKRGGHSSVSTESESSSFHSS

[14] = biological target: CXCR6 (Homo sapiens, UniProt O00574)
Sequence of CXCR6 (O00574 whole entry): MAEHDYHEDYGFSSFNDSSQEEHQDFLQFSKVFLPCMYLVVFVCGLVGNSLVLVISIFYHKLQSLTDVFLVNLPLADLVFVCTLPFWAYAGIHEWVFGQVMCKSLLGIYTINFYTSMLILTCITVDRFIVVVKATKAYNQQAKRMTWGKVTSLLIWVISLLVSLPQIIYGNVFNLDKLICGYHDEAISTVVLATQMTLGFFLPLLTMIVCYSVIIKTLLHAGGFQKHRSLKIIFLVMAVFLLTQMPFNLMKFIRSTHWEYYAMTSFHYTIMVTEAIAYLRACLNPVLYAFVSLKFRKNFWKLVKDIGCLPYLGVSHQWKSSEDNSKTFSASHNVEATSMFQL

[15] = biological target: T10, D1 (Homo sapiens, UniProt P21728)
T10 construct: gene DRD1

[16] = biological target: T11, D2S (Homo sapiens, UniProt P14416)
T11 construct: gene DRD2; D2S short isoform

[17] = biological target: T12, D3 (Homo sapiens, UniProt P35462)
T12 construct: gene DRD3

[18] = biological target: T13, FFA1 (Homo sapiens, UniProt O14842)
T13 construct: gene FFAR1
T13 sequence (O14842 whole entry): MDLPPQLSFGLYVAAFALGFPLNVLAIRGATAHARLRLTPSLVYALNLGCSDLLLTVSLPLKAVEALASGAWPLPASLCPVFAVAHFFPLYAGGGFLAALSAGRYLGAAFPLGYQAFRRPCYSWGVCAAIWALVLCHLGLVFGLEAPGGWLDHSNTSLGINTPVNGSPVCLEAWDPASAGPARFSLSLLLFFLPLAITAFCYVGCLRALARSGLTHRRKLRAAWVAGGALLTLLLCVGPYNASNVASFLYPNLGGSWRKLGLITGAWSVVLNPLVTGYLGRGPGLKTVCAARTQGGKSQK

[19] = biological target: T14, FFA4 (GPR120) (Homo sapiens, UniProt Q5NUL3)
T14 construct: gene FFAR4
T14 sequence (Q5NUL3 whole entry): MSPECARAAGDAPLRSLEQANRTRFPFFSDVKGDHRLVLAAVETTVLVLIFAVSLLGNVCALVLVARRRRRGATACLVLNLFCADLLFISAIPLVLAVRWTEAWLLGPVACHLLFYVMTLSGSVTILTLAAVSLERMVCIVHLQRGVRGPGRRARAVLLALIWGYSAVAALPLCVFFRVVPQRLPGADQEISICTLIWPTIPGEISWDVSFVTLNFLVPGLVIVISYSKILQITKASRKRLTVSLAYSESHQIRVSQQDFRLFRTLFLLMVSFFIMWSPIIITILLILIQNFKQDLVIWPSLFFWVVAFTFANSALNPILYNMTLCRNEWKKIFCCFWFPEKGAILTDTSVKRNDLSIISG

[20] = biological target: FPR1 (Homo sapiens, UniProt P21462)
Sequence of FPR1 (P21462 whole entry): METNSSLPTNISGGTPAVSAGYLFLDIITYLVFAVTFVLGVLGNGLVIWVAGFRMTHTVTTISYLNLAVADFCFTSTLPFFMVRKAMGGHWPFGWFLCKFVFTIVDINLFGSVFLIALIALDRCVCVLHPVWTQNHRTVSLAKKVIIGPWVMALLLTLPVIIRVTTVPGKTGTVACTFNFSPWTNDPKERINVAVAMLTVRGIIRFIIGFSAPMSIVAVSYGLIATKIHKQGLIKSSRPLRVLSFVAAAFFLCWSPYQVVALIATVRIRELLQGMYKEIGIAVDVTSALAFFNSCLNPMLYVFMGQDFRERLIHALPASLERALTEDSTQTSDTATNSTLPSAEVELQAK

[21] = biological target: T15, GHRH (Homo sapiens, UniProt Q02643)
T15 construct: gene GHRHR

[22] = biological target: T16, GnRH (Homo sapiens, UniProt P30968)
T16 construct: gene GNRHR
T16 sequence (P30968 whole entry): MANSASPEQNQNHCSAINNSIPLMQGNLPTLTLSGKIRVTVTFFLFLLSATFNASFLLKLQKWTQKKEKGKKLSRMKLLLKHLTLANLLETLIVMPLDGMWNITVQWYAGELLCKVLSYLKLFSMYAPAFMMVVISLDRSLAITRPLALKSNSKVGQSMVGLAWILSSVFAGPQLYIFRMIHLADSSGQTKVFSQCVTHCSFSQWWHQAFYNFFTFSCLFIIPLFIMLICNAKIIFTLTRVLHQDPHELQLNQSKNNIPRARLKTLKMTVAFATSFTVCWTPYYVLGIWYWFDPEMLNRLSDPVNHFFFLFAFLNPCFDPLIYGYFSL

[23] = biological target: T17, H1 (Homo sapiens, UniProt P35367)
T17 construct: gene HRH1
T17 sequence (P35367 whole entry): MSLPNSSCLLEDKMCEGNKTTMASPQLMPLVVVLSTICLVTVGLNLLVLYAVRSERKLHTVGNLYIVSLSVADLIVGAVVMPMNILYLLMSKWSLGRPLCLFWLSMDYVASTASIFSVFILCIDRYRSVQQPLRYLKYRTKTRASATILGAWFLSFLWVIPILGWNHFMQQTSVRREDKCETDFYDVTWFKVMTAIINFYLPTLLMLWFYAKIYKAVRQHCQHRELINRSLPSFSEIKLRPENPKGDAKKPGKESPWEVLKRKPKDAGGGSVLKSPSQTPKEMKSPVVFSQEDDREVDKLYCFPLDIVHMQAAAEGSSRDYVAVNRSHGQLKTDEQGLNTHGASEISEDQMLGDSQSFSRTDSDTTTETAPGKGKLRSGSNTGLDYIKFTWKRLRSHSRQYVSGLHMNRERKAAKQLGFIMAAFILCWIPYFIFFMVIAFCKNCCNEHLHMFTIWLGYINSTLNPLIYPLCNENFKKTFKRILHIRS

[24] = biological target: T18, H2 (Homo sapiens, UniProt P25021)
T18 construct: gene HRH2

[25] = biological target: T19, α1B (Homo sapiens, UniProt P35368)
T19 construct: gene ADRA1B

[26] = biological target: T20, α2C (Homo sapiens, UniProt P18825)
T20 construct: gene ADRA2C

[O-][S@@+](Cc1cncs1)C(c1ccccc1)c1ccccc1 [S-CE-123, (S)-5-((Benzhydrylsulfinyl)Methyl)Thiazole]
inhibition at 2.8 µM [1]: -1.8% | inhibition at 2.8 µM [2]: 6.2% | inhibition at 2.8 µM [3]: -23.2% | inhibition at 2.8 µM [4]: 6.2% | inhibition at 2.8 µM [5]: 11.4% | inhibition at 2.8 µM [6]: -2.1% | inhibition at 2.8 µM [7]: 18.2% | inhibition at 2.8 µM [8]: -6.9% | inhibition at 2.8 µM [9]: -10.7% | inhibition at 2.8 µM [10]: -5.8% | inhibition at 2.8 µM [11]: -18.8% | inhibition at 2.8 µM [12]: -16.9% | inhibition at 2.8 µM [13]: -40.7% | inhibition at 2.8 µM [14]: -7.6% | inhibition at 2.8 µM [15]: -5.6% | inhibition at 2.8 µM [16]: 18.1% | inhibition at 2.8 µM [17]: -1.9% | inhibition at 2.8 µM [18]: -2.8% | inhibition at 2.8 µM [19]: -14.4% | inhibition at 2.8 µM [20]: 1.6% | inhibition at 2.8 µM [21]: 11.7% | inhibition at 2.8 µM [22]: 3.9% | inhibition at 2.8 µM [23]: -1.9% | inhibition at 2.8 µM [24]: -2.4% | inhibition at 2.8 µM [25]: -15.1% | inhibition at 2.8 µM [26]: 0.3%
